Data reported in patent US10689354B2, “Aminoazole derivative” (Teijin Pharma Limited, priority 2015, dated 2020).

Tests used:
[1] = target: T1, androgen receptor (AR-LBD) (Rattus norvegicus, UniProt P15207); assay: Evaluation of androgen receptor affinity (PolarScreen Androgen Receptor Competitor Assay Kit, Red; fluorescence polarization); settings: 22° C. for 5 hours, relative to binding rate of 1 μM DHT, read-out: AR affinity (pEC50) (converted)
T1 construct: 5 μL of 2×AR-LBD/Fluoromone AL Red Complex contained in the kit; purchased Invitrogen
T1 sequence (P15207 651-882 limits assumed): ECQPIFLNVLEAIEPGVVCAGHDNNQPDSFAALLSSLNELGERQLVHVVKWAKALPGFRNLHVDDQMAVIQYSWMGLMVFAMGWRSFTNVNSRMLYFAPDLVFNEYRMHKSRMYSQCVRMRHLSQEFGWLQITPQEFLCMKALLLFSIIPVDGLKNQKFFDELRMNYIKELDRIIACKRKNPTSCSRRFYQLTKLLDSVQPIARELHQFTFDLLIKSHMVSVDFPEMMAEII
Summary of the method: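 Test compound and the 2× AR-LBD/Fluoromone AL Red complex were combined in duplicate wells. After reacting 5 h at 22° C, polarization was measured. pEC50 was derived by 4-parameter fitting, normalizing to binding obtained with 1 μM dihydrotestosterone.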

human androgen receptor = target: T2, human androgen receptor (Homo sapiens, UniProt P10275); assay: Reporter assay of an androgen receptor responsive sequence (luciferase, transiently transfected HEK293 cells); assay type: cell-based; settings: 24 hours incubation, relative to activity of 100 nM DHT, read-out: AR transcriptive activity (pEC50) (converted)
T2 construct: expressed in transfected cells; host or cells: HEK293
T2 sequence (P10275 1-920): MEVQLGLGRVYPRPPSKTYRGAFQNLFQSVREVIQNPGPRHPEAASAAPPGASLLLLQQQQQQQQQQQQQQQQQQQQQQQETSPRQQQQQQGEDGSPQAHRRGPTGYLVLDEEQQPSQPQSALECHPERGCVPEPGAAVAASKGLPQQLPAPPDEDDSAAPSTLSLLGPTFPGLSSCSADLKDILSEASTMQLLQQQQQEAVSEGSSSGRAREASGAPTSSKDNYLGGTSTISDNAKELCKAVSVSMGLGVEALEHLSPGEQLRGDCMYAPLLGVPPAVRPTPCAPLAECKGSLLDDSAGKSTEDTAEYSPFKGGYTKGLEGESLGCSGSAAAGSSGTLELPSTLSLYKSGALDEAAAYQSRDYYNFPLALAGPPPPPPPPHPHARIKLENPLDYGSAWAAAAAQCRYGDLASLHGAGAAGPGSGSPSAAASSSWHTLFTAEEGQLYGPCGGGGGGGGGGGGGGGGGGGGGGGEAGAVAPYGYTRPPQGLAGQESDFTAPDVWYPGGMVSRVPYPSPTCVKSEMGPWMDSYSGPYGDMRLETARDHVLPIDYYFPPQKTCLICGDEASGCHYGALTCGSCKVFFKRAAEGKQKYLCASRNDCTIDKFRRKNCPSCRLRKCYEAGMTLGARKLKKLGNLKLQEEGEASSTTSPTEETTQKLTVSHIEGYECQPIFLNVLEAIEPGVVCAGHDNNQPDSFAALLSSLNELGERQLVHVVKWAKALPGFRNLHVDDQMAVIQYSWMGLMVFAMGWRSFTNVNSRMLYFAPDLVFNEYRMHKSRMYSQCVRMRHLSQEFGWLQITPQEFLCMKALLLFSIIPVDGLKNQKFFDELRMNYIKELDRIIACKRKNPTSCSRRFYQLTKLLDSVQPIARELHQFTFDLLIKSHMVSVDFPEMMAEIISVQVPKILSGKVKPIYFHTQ
Summary of the method: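 Agonism scored as pEC50, fitted by 4-parameter curve against the response to 100 nM DHT, from dual-luciferase readout after 24 h compound treatment. Cells were HEK293 co-transfected (3 h) with human AR expression vector, androgen-responsive firefly reporter and Renilla control, in charcoal-stripped serum.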

SMILES | EC50 [1] | EC50 (human androgen receptor)
COc1ccc(CN(c2ccc(C#N)cc2)c2nc(C(=O)NS(C)(=O)=O)c(C)s2)nc1 [Compound 515, 2-[4-cyano-N-[(5-methoxy-2-pyridyl)methyl]anilino]-5-methyl-N-methylsulfonyl-thiazole-4-carboxamide] | 794 nM | 501 nM
COc1ccc(CN(c2ccc(C#N)cc2)c2nc(C(=O)NS(C)(=O)=O)c(C)s2)nn1 [Compound 516, 2-[4-cyano-N-[(6-methoxypyridazin-3-yl)methyl]anilino]-5-methyl-N-methylsulfonyl-thiazole-4-carboxamide] | > 2000 nM | 6310 nM
Cc1sc(N(Cc2ccc(F)cn2)c2ccc(C#N)cc2)nc1C(=O)NS(C)(=O)=O [Compound 517, 2-[4-cyano-N-[(5-fluoro-2-pyridyl)methyl]anilino]-5-methyl-N-methylsulfonyl-thiazole-4-carboxamide] | 316 nM | 631 nM
Cc1sc(N(Cc2cc(F)cc(OC(F)F)c2)c2ccc(C#N)cc2)nc1C(=O)NS(C)(=O)=O [Compound 518, 2-[4-cyano-N-[[3-(difluoromethoxy)-5-fluoro-phenyl]methyl]anilino]-5-methyl-N-methylsulfonyl-thiazole-4-carboxamide] | 25.1 nM | 39.8 nM
COCCCS(=O)(=O)NC(=O)c1nc(N(Cc2cc(F)cc(OC(F)F)c2)c2ccc(C#N)cc2)sc1C [Compound 519, 2-[4-cyano-N-[[3-(difluoromethoxy)-5-fluoro-phenyl]methyl]anilino]-N-(3-methoxypropylsulfonyl)-5-methyl-thiazole-4-carboxamide] | 25.1 nM | 158 nM
Cc1sc(N(Cc2cc(OC(F)F)ccc2F)c2ccc(C#N)cc2)nc1C(=O)NS(C)(=O)=O [Compound 520, 2-[4-cyano-N-[[5-(difluoromethoxy)-2-fluoro-phenyl]methyl]anilino]-5-methyl-N-methylsulfonyl-thiazole-4-carboxamide] | 25.1 nM | 316 nM
COCCCS(=O)(=O)NC(=O)c1nc(N(Cc2cc(OC(F)F)ccc2F)c2ccc(C#N)cc2)sc1C [Compound 521, 2-[4-cyano-N-[[5-(difluoromethoxy)-2-fluoro-phenyl]methyl]anilino]-N-(3-methoxypropylsulfonyl)-5-methyl-thiazole-4-carboxamide] | 31.6 nM | 1260 nM
Cc1sc(N(Cc2ccc(OC(F)F)cc2F)c2ccc(C#N)cc2)nc1C(=O)NS(C)(=O)=O [Compound 522, 2-[4-cyano-N-[[4-(difluoromethoxy)-2-fluoro-phenyl]methyl]anilino]-5-methyl-N-methylsulfonyl-thiazole-4-carboxamide] | 25.1 nM | 251 nM
COCCCS(=O)(=O)NC(=O)c1nc(N(Cc2ccc(OC(F)F)cc2F)c2ccc(C#N)cc2)sc1C [Compound 523, 2-[4-cyano-N-[[4-(difluoromethoxy)-2-fluoro-phenyl]methyl]anilino]-N-(3-methoxypropylsulfonyl)-5-methyl-thiazole-4-carboxamide] | 31.6 nM | 398 nM
Cc1sc(N(Cc2ccc(OC(F)F)nc2)c2ccc(C#N)cc2)nc1C(=O)NS(C)(=O)=O [Compound 524, 2-[4-cyano-N-[[6-(difluoromethoxy)-3-pyridyl]methyl]anilino]-5-methyl-N-methylsulfonyl-thiazole-4-carboxamide] | 39.8 nM | 501 nM
COCCCS(=O)(=O)NC(=O)c1nc(N(Cc2ccc(OC(F)F)nc2)c2ccc(C#N)cc2)sc1C [Compound 525, 2-[4-cyano-N-[[6-(difluoromethoxy)-3-pyridyl]methyl]anilino]-N-(3-methoxypropylsulfonyl)-5-methyl-thiazole-4-carboxamide] | 50.1 nM | 631 nM
COCCCS(=O)(=O)NC(=O)c1nc(N(Cc2ccc(OC(F)F)c(F)c2)c2ccc(C#N)cc2)sc1C [Compound 526, 2-[4-cyano-N-[[4-(difluoromethoxy)-3-fluoro-phenyl]methyl]anilino]-N-(3-methoxypropylsulfonyl)-5-methyl-thiazole-4-carboxamide] | 39.8 nM | 100 nM
Cc1sc(N(Cc2ncc(F)cc2F)c2ccc(C#N)cc2)nc1C(=O)NS(C)(=O)=O [Compound 527, 2-[4-cyano-N-[(3,5-difluoro-2-pyridyl)methyl]anilino]-5-methyl-N-methylsulfonyl-thiazole-4-carboxamide] | 501 nM | 1000 nM
Cc1sc(N(Cc2ccc(Br)c(Cl)c2)c2ccc(C#N)cc2)nc1C(=O)NS(C)(=O)=O [Compound 528, 2-[N-[(4-bromo-3-chloro-phenyl)methyl]-4-cyano-anilino]-5-methyl-N-methylsulfonyl-thiazole-4-carboxamide] | > 2000 nM | 7940 nM
Cc1sc(N(Cc2cc3ccccc3cn2)c2ccc(C#N)cc2)nc1C(=O)NS(C)(=O)=O [Compound 529, 2-[4-cyano-N-(3-isoquinolylmethyl)anilino]-5-methyl-N-methylsulfonyl-thiazole-4-carboxamide] | 398 nM | 316 nM
Cc1sc(N(Cc2cnc(C(F)(F)F)c(Cl)c2)c2ccc(C#N)cc2)nc1C(=O)NS(C)(=O)=O [Compound 530, 2-[N-[[5-chloro-6-(trifluoromethyl)-3-pyridyl]methyl]-4-cyano-anilino]-5-methyl-N-methylsulfonyl-thiazole-4-carboxamide] | 50.1 nM | 501 nM
COCCCS(=O)(=O)NC(=O)c1nc(N(Cc2cnc(C(F)(F)F)c(Cl)c2)c2ccc(C#N)cc2)sc1C [Compound 531, 2-[N-[[5-chloro-6-(trifluoromethyl)-3-pyridyl]methyl]-4-cyano-anilino]-N-(3-methoxypropylsulfonyl)-5-methyl-thiazole-4-carboxamide] | 100 nM | 1000 nM
COCCCS(=O)(=O)NC(=O)c1nc(N(Cc2cnc(C(F)(F)F)c(OC)c2)c2ccc(C#N)cc2)sc1C [Compound 532, 2-[4-cyano-N-[[5-methoxy-6-(trifluoromethyl)-3-pyridyl]methyl]anilino]-N-(3-methoxypropylsulfonyl)-5-methyl-thiazole-4-carboxamide] | 200 nM | 1580 nM
COCCCS(=O)(=O)NC(=O)c1nc(N(Cc2cnc(C(F)(F)F)c(F)c2)c2ccc(C#N)cc2)sc1C [Compound 533, 2-[4-cyano-N-[[5-fluoro-6-(trifluoromethyl)-3-pyridyl]methyl]anilino]-N-(3-methoxypropylsulfonyl)-5-methyl-thiazole-4-carboxamide] | 158 nM | 794 nM
COCCCS(=O)(=O)NC(=O)c1nc(N(Cc2ccc(C(F)(F)F)c(C#N)c2)c2ccc(C#N)cc2)sc1C [Compound 534, 2-[4-cyano-N-[[3-cyano-4-(trifluoromethyl)phenyl]methyl]anilino]-N-(3-methoxypropylsulfonyl)-5-methyl-thiazole-4-carboxamide] | 100 nM | 158 nM
COCCCS(=O)(=O)NC(=O)c1nc(N(Cc2ncc(Br)cc2F)c2ccc(C#N)cc2)sc1C [Compound 535, 2-[N-[(5-bromo-3-fluoro-2-pyridyl)methyl]-4-cyano-anilino]-N-(3-methoxypropylsulfonyl)-5-methyl-thiazole-4-carboxamide] | 126 nM | 316 nM
Cc1sc(N(Cc2ccc(OC(F)F)c(Cl)c2)c2ccc(C#N)cc2)nc1C(=O)NS(C)(=O)=O [Compound 536, 2-[N-[[3-chloro-4-(difluoromethoxy)phenyl]methyl]-4-cyano-anilino]-5-methyl-N-methylsulfonyl-thiazole-4-carboxamide] | 20 nM | 39.8 nM
Cc1sc(N(Cc2cnc(C(F)(F)F)cn2)c2ccc(C#N)cc2)nc1C(=O)NS(C)(=O)=O [Compound 537, 2-[4-cyano-N-[[5-(trifluoromethyl)pyrazin-2-yl]methyl]anilino]-5-methyl-N-methylsulfonyl-thiazole-4-carboxamide] | 316 nM | 631 nM
